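Exposure lasted 48 hours, with cells grown in 96-well plates and compounds tested at five concentrations. The concentration for 50% growth inhibition is given as GI50.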 Calls of active or inactive are those of the source. Rule as the data show it: active = GI50 up to about 1.1 µM and inactive = higher.
What was measured:
Assay in all cases: NCI anticancer screen, dose series, 48 h
[1] = tested on: UACC-62
[2] = tested on: NCI-H23
[3] = tested on: LOX IMVI
[4] = tested on: IGROV-1
[5] = tested on: MDA-MB-435
[6] = tested on: OVCAR-5
[7] = tested on: SW-620
[8] = tested on: NCI/ADR-RES
[9] = tested on: CCRF-CEM
[10] = tested on: HL-60
[11] = tested on: 786-0
[12] = tested on: Hs-578T
[13] = tested on: RXF 393
[14] = tested on: HT-29
[15] = tested on: NCI-H460
[16] = tested on: MOLT-4
[17] = tested on: MDA-N
[18] = tested on: A498
[19] = tested on: HCT-116
[20] = tested on: OVCAR-3

SMILES | GI50 [1] | GI50 [2] | GI50 [3] | GI50 [4] | GI50 [5] | GI50 [6] | GI50 [7] | GI50 [8] | GI50 [9] | GI50 [10] | GI50 [11] | GI50 [12] | GI50 [13] | GI50 [14] | GI50 [15] | GI50 [16] | GI50 [17] | GI50 [18] | GI50 [19] | GI50 [20]
O=C(Nc1ccc(-c2cn3ccccc3n2)cc1)c1cc(Br)ccc1O | > 100 µM (inactive) | > 100 µM (inactive) | > 100 µM (inactive) | > 100 µM (inactive) | > 100 µM (inactive) | > 100 µM (inactive) | > 100 µM (inactive) | > 100 µM (inactive) | > 100 µM (inactive) | > 100 µM (inactive) | > 100 µM (inactive) | > 100 µM (inactive) | > 100 µM (inactive) | > 100 µM (inactive) | > 100 µM (inactive) | > 100 µM (inactive) | > 100 µM (inactive) | > 100 µM (inactive) | > 100 µM (inactive) | > 100 µM (inactive)
COC(=O)c1c(C)cccc1CC1Cc2c(C)cccc2C1=O (stereo not given) | 23.8 µM (inactive) | 25.8 µM (inactive) | 12 µM (inactive) | 33.3 µM (inactive) | 21.7 µM (inactive) | 80.2 µM (inactive) | 40.6 µM (inactive) | 19.9 µM (inactive) | 23 µM (inactive) | 16.9 µM (inactive) | 32.4 µM (inactive) | 35.3 µM (inactive) | 27.9 µM (inactive) | 30.5 µM (inactive) | 35 µM (inactive) | 24.4 µM (inactive) | 30.3 µM (inactive) | 22.6 µM (inactive) | 25.9 µM (inactive) | 24.1 µM (inactive)
CCOC(=O)c1ccc(-c2cccs2)n1C | 58.5 µM (inactive) | > 86.7 µM (inactive) | > 77.8 µM (inactive) | > 80.7 µM (inactive) | > 92.5 µM (inactive) | > 100 µM (inactive) | > 80.7 µM (inactive) | > 87.5 µM (inactive) | 71.8 µM (inactive) | > 69.5 µM (inactive) | > 100 µM (inactive) | 43.4 µM (inactive) | > 66.5 µM (inactive) | 47.2 µM (inactive) | > 100 µM (inactive) | 39.4 µM (inactive) | > 96.2 µM (inactive) | > 100 µM (inactive) | > 95.1 µM (inactive) | > 100 µM (inactive)
CC(=O)N(C)C(C(=O)N1CC(C)CC1C(=O)N(C)C1C(=O)NC(CC(C)C)C(=O)N2CC(C)CC2C(=O)NC(CC(C)C)C(=O)N(C)C(C(C)C)C(=O)N2CCCC2C(=O)N(C)C(CC(C)C)C(=O)NCC(=O)OC1C)C(C)C (stereo not given) | > 100 µM (inactive) | > 100 µM (inactive) | > 100 µM (inactive) | 72.1 µM (inactive) | > 100 µM (inactive) | > 100 µM (inactive) | > 100 µM (inactive) | > 100 µM (inactive) | > 100 µM (inactive) | > 100 µM (inactive) | > 100 µM (inactive) | > 100 µM (inactive) | > 100 µM (inactive) | > 100 µM (inactive) | > 100 µM (inactive) | > 100 µM (inactive) | > 100 µM (inactive) | > 100 µM (inactive) | > 100 µM (inactive) | > 100 µM (inactive)
O=C(/C=C/c1ccco1)CC(=O)/C=C/c1ccco1 | 13.5 µM (inactive) | 12.2 µM (inactive) | 4.99 µM (inactive) | 16.8 µM (inactive) | 10.1 µM (inactive) | 16.9 µM (inactive) | 10.9 µM (inactive) | 12.8 µM (inactive) | 6.17 µM (inactive) | 5.55 µM (inactive) | 12.7 µM (inactive) | 16.4 µM (inactive) | 4.58 µM (inactive) | > 10 µM (inactive) | 14.4 µM (inactive) | 12 µM (inactive) | 8.04 µM (inactive) | 20.9 µM (inactive) | 11.4 µM (inactive) | > 10 µM (inactive)
CCOC(=O)N(Cc1cccs1)c1cc(OC)c(OC)c(OC)c1 | 40 µM (inactive) | > 100 µM (inactive) | 45.2 µM (inactive) | 17 µM (inactive) | 17.4 µM (inactive) | > 100 µM (inactive) | > 100 µM (inactive) | 3.01 µM (inactive) | 41 µM (inactive) | 34.8 µM (inactive) | > 100 µM (inactive) | 86.5 µM (inactive) | 83 µM (inactive) | 70.1 µM (inactive) | 51.1 µM (inactive) | 13.6 µM (inactive) | 28.9 µM (inactive) | > 100 µM (inactive) | > 100 µM (inactive) | 53.8 µM (inactive)
Cc1c(C(=O)O)n2cnnc2c2ccccc12 | > 100 µM (inactive) | > 100 µM (inactive) | > 100 µM (inactive) | > 100 µM (inactive) | > 100 µM (inactive) | > 100 µM (inactive) | > 100 µM (inactive) | > 100 µM (inactive) | > 100 µM (inactive) | > 100 µM (inactive) | > 100 µM (inactive) | > 100 µM (inactive) | > 100 µM (inactive) | > 100 µM (inactive) | > 100 µM (inactive) | > 100 µM (inactive) | > 100 µM (inactive) | > 100 µM (inactive) | > 100 µM (inactive) | > 100 µM (inactive)
Cc1cccc2oc3c(c(=O)c12)CC(O)C(C)(C)O3 (stereo not given) | > 100 µM (inactive) | > 100 µM (inactive) | 86.5 µM (inactive) | > 100 µM (inactive) | > 100 µM (inactive) | > 100 µM (inactive) | 51.6 µM (inactive) | 79.1 µM (inactive) | 28.2 µM (inactive) | 23.9 µM (inactive) | > 100 µM (inactive) | > 100 µM (inactive) | 74 µM (inactive) | > 100 µM (inactive) | > 100 µM (inactive) | 38.5 µM (inactive) | > 100 µM (inactive) | > 100 µM (inactive) | 45.8 µM (inactive) | 99.1 µM (inactive)
Cc1cc(CC(O)(C(F)(F)F)C(F)(F)F)cc(CC(O)(C(F)(F)F)C(F)(F)F)n1 | 3.57 µM (inactive) | 2.51 µM (inactive) | 2.42 µM (inactive) | 3.46 µM (inactive) | 2.88 µM (inactive) | 6.79 µM (inactive) | > 100 µM (inactive) | 1.87 µM (inactive) | 3.21 µM (inactive) | 3.02 µM (inactive) | 2.29 µM (inactive) | 2.67 µM (inactive) | 4.24 µM (inactive) | 2.58 µM (inactive) | 2.04 µM (inactive) | 3.24 µM (inactive) | 3.88 µM (inactive) | 2.76 µM (inactive) | 2.34 µM (inactive) | 1.01 µM (active)
N=C(c1cccs1)C1(N2CCCCC2)CCCCC1 | 14.9 µM (inactive) | 24.3 µM (inactive) | 28.2 µM (inactive) | 22.3 µM (inactive) | 18.2 µM (inactive) | 19.4 µM (inactive) | 16.6 µM (inactive) | 25.4 µM (inactive) | 17.7 µM (inactive) | 13.2 µM (inactive) | 70.5 µM (inactive) | 57.4 µM (inactive) | 14.6 µM (inactive) | 17.3 µM (inactive) | 15.7 µM (inactive) | 15.7 µM (inactive) | 49.5 µM (inactive) | 17.7 µM (inactive) | 42.2 µM (inactive) | 15.3 µM (inactive)
S=C1Cc2c(-c3ccc(Cl)cc3)cc(-c3ccccc3)nc2-c2ccccc2N1 | 14.6 µM (inactive) | 11.6 µM (inactive) | 13.9 µM (inactive) | 3.83 µM (inactive) | 15 µM (inactive) | 24.5 µM (inactive) | 19.1 µM (inactive) | 12.7 µM (inactive) | 26.2 µM (inactive) | 30.6 µM (inactive) | 5.97 µM (inactive) | 3.56 µM (inactive) | 6.56 µM (inactive) | 5.47 µM (inactive) | 13 µM (inactive) | 28.7 µM (inactive) | 14 µM (inactive) | 14.8 µM (inactive) | 11 µM (inactive) | 13 µM (inactive)
CC(C)C(Cl)CC/C(CBr)=C(\Cl)CCl (stereo not given) | 2.24 µM (inactive) | 2.67 µM (inactive) | 0.24 µM (active) | 1.77 µM (inactive) | 3.2 µM (inactive) | 15.4 µM (inactive) | 1.8 µM (inactive) | 10.9 µM (inactive) | 0.225 µM (active) | 0.54 µM (active) | 2.22 µM (inactive) | 2.9 µM (inactive) | 2.8 µM (inactive) | 4.75 µM (inactive) | 13.4 µM (inactive) | 1.73 µM (inactive) | 2.05 µM (inactive) | 19.2 µM (inactive) | 2.86 µM (inactive) | 4.72 µM (inactive)
COc1cc(-c2cn(S(=O)(=O)c3ccc(C)cc3)c3ccccc23)nc(-c2cn(S(=O)(=O)c3ccc(C)cc3)c3ccccc23)n1 | 0.632 µM (active) | 0.245 µM (active) | 0.6 µM (active) | 0.728 µM (active) | 0.18 µM (active) | 1.13 µM (inactive) | 2.9 µM (inactive) | 0.746 µM (active) | 12.2 µM (inactive) | 2.19 µM (inactive) | 1.35 µM (inactive) | 0.433 µM (active) | 0.372 µM (active) | 0.573 µM (active) | 0.388 µM (active) | 0.69 µM (active) | 0.441 µM (active) | 1.32 µM (inactive) | 0.385 µM (active) | 0.586 µM (active)
CC(=O)c1ccc2c(c1)C(=O)c1sc(C(C)=O)cc1C2=O | 0.995 µM (active) | 1.09 µM (active) | 0.22 µM (active) | 1.07 µM (active) | 1.18 µM (inactive) | 1.08 µM (active) | 0.738 µM (active) | 0.906 µM (active) | 0.403 µM (active) | 0.24 µM (active) | 1.68 µM (inactive) | 1.46 µM (inactive) | 1.3 µM (inactive) | 1.2 µM (inactive) | 1.37 µM (inactive) | 0.233 µM (active) | 0.796 µM (active) | 21.6 µM (inactive) | 0.488 µM (active) | 0.368 µM (active)

Source: ChEMBL document CHEMBL1201862, “PubChem BioAssay data set” (2004)
